Reference: US20040002521A1, “Cyclopropanecarboxylic acid amide compound and pharmaceutical use thereof” (AJINOMOTO CO. INC, priority 2000, published 2004)
≈ marks a conversion by molar mass, not a printed value.

The compounds below were run on NF-kappa B (assay: Evaluation of NF-kappa B inhibition (β-gal reporter driven by 6 NF-kappa B binding sequences in immortalized HUVEC, IL-1β induced)). Settings: Homo sapiens; HUVEC reporter cells; compound added 30 minutes before IL-1β; β-gal activity determined after 16 hours; read-out: NF-kappa B Inhibitory Activity: IC50.
Type: cell-based
Text: Evaluation of NF-kappa B Inhibition
In this evaluation, there were used cells obtained by stably introducing β-galactosidase (β-gal) gene of Escherichia coli, which was driven by an SV40 minimum promoter produced by fusing 6 NF-kappa B binding sequences derived from the kappa light chain enhancer of immunoglobulin arranged in a tandem to human normal umbilical venous endothelial cells (HUVEC) immortalized with an SV40 large-sized T-antigen. These cells were subjected to the subculture in an RPMI culture medium supplemented with 10% FBS (fetal bovine serum) and the cells were inoculated in wells of a 96-well plate in a concentration of 1×10^4 cells/well on the day before the initiation of the experiments. Each candidate compound of the present invention was dissolved in DMSO in an adequate concentration and then added to each well of the 96-well plate in such a manner that the final concentration of DMSO was adjusted to a level of not more than 1%. After 30 minutes from the addition of the compound, a […] IL-1β was added to each well to a final concentration of 50 ng/ml to thus induce the NF-kappa B activity and the β-gal activity was determined after 16 hours therefrom. The β-gal activity was determined using a chemiluminescent substrate (Galacton-Light-Plus available from Boehringer Manheim Company), which was used according to the protocols annexed to the reagent, and Luminescencer (available from ATO Company).

SMILES	IC50
Cc1ccc(NC(=O)C2CC2(C)C)cc1 (stereo not shown) [Example 2, 2,2-Dimethyl-cyclopropanecarboxylic acid p-tolylamide]	3 µg/mL (≈ 14.8 µM)
CC1(C)CC1C(=O)Nc1ccc(Cc2ccccc2)cc1 (stereo not shown) [Example 1, 2,2-Dimethyl-cyclopropanecarboxylic acid (4-benzylphenyl)-amide]	3 µg/mL (≈ 10.7 µM)
CC1(C)CC1C(=O)Nc1ccc(Nc2ccccc2)cc1 (stereo not shown) [Example 12, 2,2-Dimethyl-cyclopropanecarboxylic acid (4-phenylamino-phenyl)-amide]	2 µg/mL (≈ 7.13 µM)
CC1(C)CC1C(=O)Nc1ccc(Oc2ccc(Cl)cc2)cc1 (stereo not shown) [Example 9, 2,2-Dimethyl-cyclopropanecarboxylic acid [4-(4-chlorophenoxy)-phenyl]-amide]	5 µg/mL (≈ 15.8 µM)
